Reference: patent US20240315994A1, “SMALL MOLECULE MODULATORS OF FERROPTOSIS” (ARPEGGIO BIOSCIENCES, INC., priority 2021, published 2024)

What follows are compounds tested on HT-1080 fibrosarcoma cells (assay: HT-1080 single-concentration cell viability screen (Cell Titer Glo)). Settings: 10 μM compound, 48 hours, duplicate, fraction of control.
Assay type: cell-based
Source text: To identify potential covalent inhibitors of GPX4, we screened a panel of 294 diverse small molecules from the Enamine covalent inhibitor library (Catalog No. CSL-10480-0-Z-10, Enamine, Monmouth, NJ). Each compound contains either a chloroacetamide or acrylamide moiety theoretically capable of forming a covalent bond with a selenocysteine. The small molecule compounds were selected for a diversity of backbone structures. The screening protocol used the cell viability assay Cell Titer Glo® (available from Promega, Madison, WI). Cell Titer Glo® is a luminescent cell viability that determines the number of viable cells in culture by quantifying ATP, which indicates the presence of metabolically active cells. Briefly, HT-1080 fibrosarcoma cells were plated 24 hours prior to treatment with 10 µM of each compound in the screening panel. Cell Titer Glo® was used to read out cell viability after 48 hours of compound exposure. Data was collected in duplicate.
To determine whether similar molecules could offer other starting points for a medicinal chemistry campaign, we screened 95 additional compounds that contain a similar base structure to that of 8216. Briefly, HT-1080 fibrosarcoma cells were treated with 10 µM of a compound for 48 hours and cell viability was measured by Cell Titer Glo®. Data was collected in duplicate. […]

SMILES	Average relative cell viability
O=C(CCl)N(Cc1ccccc1)Cc1ccc(F)cc1 [Compound Z381549666]	0.001836
Cn1cc(CN(C(=O)CCl)c2ccc(F)cc2)cn1 [Compound Z3766264621]	0.02152
O=C(CCl)N(CC1=CCCCC1)Cc1cc(-c2ccc(Cl)cc2)on1 [Compound Z4425210932]	0.001926
COCCN(Cc1ccccc1)C(=O)CCl [Compound Z147647648]	0.1007
CC(C)(C)n1nnc(CN(Cc2cccc(C3CC3)c2F)C(=O)CCl)n1 [Compound Z4425210960]	0.01925
C=CCN1CCC(N(Cc2ccc(CC)o2)C(=O)CCl)CC1 [Compound Z4323341765]	0.7008
O=C(CCl)N(Cc1ccccc1)c1ccccc1 [Compound Z199424090]	0.00039
Cc1scc(CN(Cc2ccc3c(c2)OCCCO3)C(=O)CCl)c1C [Compound Z4425210974]	0.001284
O=C(CCl)N(Cc1ccc(Cn2cccn2)cc1)CC1CC1 [Compound Z3837267295]	0.002112
O=C(CCl)N(Cc1ccccc1)c1nc(-c2ccc(F)cc2)cs1 [Compound Z56946047]	0.000624
O=C(CCl)N(Cc1ccccc1)c1nc(-c2ccc(Cl)cc2)cs1 [Compound Z56837054]	0.001992
Cc1cc(CN(Cc2ccn(C)n2)C(=O)CCl)ccc1F [Compound Z3837152585]	0.007686
O=C(CCl)N(CC1=CCCOC1)Cc1ccccc1 [Compound Z3952175509]	0.03047
Cn1nnc(CN(C(=O)CCl)C2CCCCCCC2)n1 [Compound Z4323320274]	0.002922
Cc1cc(F)ccc1N(Cc1ccnn1C(C)C)C(=O)CCl [Compound Z3837096793]	0.1701
O=C(CCl)N(Cc1ccccc1)c1nc(-c2ccc(Br)cc2)cs1 [Compound Z56926666]	0.008622
O=C(CCl)N(Cc1nc(C2CCCCCC2)no1)C1CC1 [Compound Z3766269910]	0.002904
Cc1nn(C)c(C)c1CN(C(=O)CCl)C1CCCCC1C (stereo not shown) [Compound Z4323324870]	0.488
O=C(CCl)N(Cc1ccns1)c1ccc2c(c1)OCCO2 [Compound Z3837046637]	0.00972
O=C(CCl)N(CCc1ccc(F)cc1)Cc1cnc(C2CCOCC2)o1 [Compound Z4425211012]	0.0748
O=C(CCl)N(Cc1cccs1)C1Cc2ccccc2C1 [Compound Z3766262414]	0.5481
CC(C)n1nccc1CN(CC1CCCC1)C(=O)CCl [Compound Z3837300268]	0.00828

SMILES	Average relative cell viability
CC1(N(Cc2ccc3c(c2)OCO3)C(=O)CCl)CCCC1 [Compound Z3766260223]	0.002238
Cc1ccsc1CN(C(=O)CCl)C1CCN(C(C)C)C1=O (stereo not shown) [Compound Z4323355648]	0.5691
COc1ccc(CN(C(=O)CCl)C2CCOC(C)C2)cc1C (stereo not shown) [Compound Z4323373087]	0.0167
CN(Cc1nc2c(cnn2C)c(=O)[nH]1)C(=O)CCl [Compound Z3337549802]	1.034
O=C(CCl)N(Cc1ccnn1C1CCC1)C1CC=CCC1 (stereo not shown) [Compound Z4323362848]	0.001626
CCOC(=O)c1sc(N(Cc2ccccc2)C(=O)CCl)nc1C [Compound Z56837076]	0.004698
O=C(CCl)N(Cc1cccc2ccoc12)C1CCCOCC1 (stereo not shown) [Compound Z4323385212]	0.003768
O=C(CCl)N(Cc1cccs1)C1CCS(=O)(=O)C1 (stereo not shown) [Compound Z90122115]	0.05782
CCN1CCCC(CN(C)C(=O)CCl)C1c1cnn(C)c1 (stereo not shown) [Compound Z3766270794]	0.003474
O=C(CCl)N(CCc1ccccc1)Cc1ccccc1 [Compound Z56891378]	0.001872
CC1(C)CC(N(Cc2ccccc2)C(=O)CCl)C(C)(C)O1 (stereo not shown) [Compound Z3766271747]	0.005616
Cl.O=C(CCl)N(Cc1cn2ccccc2n1)C1CC1 [Compound Z4283095766]	0.9342
COc1cccc(CN(CC2CCCO2)C(=O)CCl)c1F (stereo not shown) [Compound Z3837050450]	0.5148
Cc1cccc(N(Cc2ccccc2)C(=O)CCl)c1 [Compound Z57052885]	0.002244
CC#CC(=O)N(Cc1ccc(-n2cncn2)cc1)C1CC1 [Compound Z2020497058]	1.089
COc1ccc(CN(CC2CC(C)=NO2)C(=O)CCl)cc1 (stereo not shown) [Compound Z3837506617]	0.3267
O=C(CCl)N(Cc1ccccc1)Cc1cc2n(n1)CCCC2 [Compound Z4323310732]	0.05332
COC1CCC(N(Cc2cc(C)oc2C)C(=O)CCl)CC1 (stereo not shown) [Compound Z4323386801]	0.01527
O=C(CCl)N(Cc1cnn(C2CCCCC2)c1)CC1(c2ccccc2)CC1 [Compound Z4425211258]	0.001938
COc1cc(CN(C(=O)CCl)C2CCCOC2)ccc1C (stereo not shown) [Compound Z4323349920]	0.002028
Cc1cc(CN(C(=O)CCl)C2CCCC2)c2ccccc2n1 [Compound Z1562139496]	0.000174

Each compound was assayed on HT1080 cells (ATCC, cat #CCL-121) (assay: HT1080 CellTiter-Glo 2.0 IC50 assay of working examples). Settings: HT-1080, 24 hrs, cells plated with and without 1.5 μM ferrostatin-1, table does not say which, Table 7.
Assay type: cell-based
Experimental: Biological evaluation of working examples A1-A47 and B1-B28 was performed in HT1080 cells (ATCC, cat #CCL-121) according to the procedure provided below.
• 1.1 Cells were harvested from flask into cell culture medium and then the cell number count was determined. • 1.2 The cells were suspended with 1.5 μM ferrostatin-1 and without ferrostatin-1. • 1.3 Cells were plated at a density of 1,500 cells per well in a 384-well black sided clear bottom plate, in 25 μL, using electronic multichannel pipette. • 1.4 Plates were covered with lid and spun for 1 min at 1000 rpm, then allowed to incubate overnight at 37° C. under 5% CO2.
• 2.1 Compounds were dissolved at 10 mM stock solution and 10 μl of diluted solution was transferred to a 384 LDV-plate (LABCYTE, LP-0200). A 3 fold, 11-point dilution was performed. • 2.2 Cells were treated with compounds by plate reformat Echo software and spun for 1 min at 1000 rpm. Then incubated at 37° C. for 24 hrs in a CO2 incubator.
• 3.1 The plates were removed from the incubator and allowed to equilibrate to room temperature, at least 30 minutes. • 3.2 CellTiter-Glo® 2.0 Reagent (Promega, G9242) was added (25 μL) to the assay plates and spun for 1 min at 1000 rpm. Then allowed to stand for about 20 minutes before reading luminescence signal on Envision. • 3.3 The IC50 calculations were determined with a nonlinear fit, variable slope (four parameters) log(inhibitor) vs. response model using GraphPad PRISM.

IC50	SMILES
1 to 10 µM	O=C(CCl)N(Cc1ccc(F)cc1)c1cc(F)cc(F)c1 [Compound A15, 2-chloro-N-(3,5-difluorophenyl)-N-[(4-fluorophenyl)methyl]acetamide]
0.01 to 0.1 µM	COc1cc(OC)cc(N(Cc2cccc(F)c2F)C(=O)CCl)c1 [Compound A20, 2-chloro-N-[(2,3-difluorophenyl)methyl]-N-(3,5-dimethoxyphenyl)acetamide]
0.1 to 1 µM	Cc1cc(C)cc(N(Cc2ccc(F)cc2)C(=O)CCl)c1 [Compound A1, 2-chloro-N-(3,5-dimethylphenyl)-N-[(4-fluorophenyl)methyl]acetamide]
0.1 to 1 µM	COc1cc(N(Cc2ccc(F)cc2)C(=O)CCl)ccn1 [Compound A46, 2-chloro-N-[(4-fluorophenyl)methyl]-N-(2-methoxy-4-pyridyl)acetamide]
0.1 to 1 µM	O=C(CCl)N(Cc1ccc(F)cc1)c1cc(Cl)cc(Cl)c1 [Compound A16, 2-chloro-N-(3,5-dichlorophenyl)-N-[(4-fluorophenyl)methyl]acetamide]
0.1 to 1 µM	Cc1ccc(CN(C(=O)CCl)c2cc(C)cc(C)c2)cc1 [Compound A10, 2-chloro-N-(3,5-dimethylphenyl)-N-(p-tolylmethyl)acetamide]
0.01 to 0.1 µM	COc1cc(OC)cc(N(Cc2cccc3nsnc23)C(=O)CCl)c1 [Compound A45, N-(2,1,3-benzothiadiazol-4-ylmethyl)-2-chloro-N-(3,5-dimethoxyphenyl)acetamide]

Same assay, conditions: HT-1080, 24 hrs, cells plated with and without 1.5 μM ferrostatin-1, table does not say which, Table 8

IC50	SMILES
0.01 to 0.1 µM	C#CC(=O)N(c1cc(C)cc(C)c1)c1nc(-c2ccc(Br)cc2)cs1 [Compound B13, N-[4-(4-bromophenyl)thiazol-2-yl]-N-(3,5-dimethylphenyl)prop-2-ynamide]
0.01 to 0.1 µM	C#CC(=O)N(c1cc(Cl)cc(Cl)c1)c1nc(-c2ccc(Br)cc2)cs1 [Compound B22, N-[4-(4-bromophenyl)thiazol-2-yl]-N-(3,5-dichlorophenyl)prop-2-ynamide]
0.1 to 1 µM	Cc1cc(C)cc(N(C(=O)CCl)c2nc(-c3cccc(Br)c3)cs2)c1 [Compound B12, N-[4-(3-bromophenyl)thiazol-2-yl]-2-chloro-N-(3,5-dimethylphenyl)acetamide]
0.1 to 1 µM	Cc1cc(C)cc(N(C(=O)CCl)c2nc(-c3ccc(Br)cc3)cs2)c1 [Compound B5, N-[4-(4-bromophenyl)thiazol-2-yl]-2-chloro-N-(3,5-dimethylphenyl)acetamide]
0.1 to 1 µM	Cc1cc(C)cc(N(C(=O)CCl)c2nc(-c3ccccc3)cs2)c1 [Compound B11, 2-chloro-N-(3,5-dimethylphenyl)-N-(4-phenylthiazol-2-yl)acetamide]
